Blank lines part the entries; values can stand above or below the molecule they belong to. Calls of active or inactive are those of the source.
Assays:
[1] = molecular target: Glycogen synthase kinase-3 alpha (Homo sapiens, UniProt P49840); test: human GSK3 alpha kinase inhibition, dose response, selectivity assay for GSK3beta inhibitor project, biochemical, microfluidics, dry powder samples, set 2 (AID 623978); format: functional
[2] = molecular target: T1, Glycogen synthase kinase-3 beta (Homo sapiens, UniProt P49841); test: GSK3beta kinase inhibitors, dose response, biochemical, microfluidics, dry powder samples, set 2 (AID 623989); format: functional
CAAX prenyl protease 2 = molecular target: T2, CAAX prenyl protease 2 (Saccharomyces cerevisiae S288c, UniProt Q03530); format: biochemical
T2 sequence (Q03530 whole entry): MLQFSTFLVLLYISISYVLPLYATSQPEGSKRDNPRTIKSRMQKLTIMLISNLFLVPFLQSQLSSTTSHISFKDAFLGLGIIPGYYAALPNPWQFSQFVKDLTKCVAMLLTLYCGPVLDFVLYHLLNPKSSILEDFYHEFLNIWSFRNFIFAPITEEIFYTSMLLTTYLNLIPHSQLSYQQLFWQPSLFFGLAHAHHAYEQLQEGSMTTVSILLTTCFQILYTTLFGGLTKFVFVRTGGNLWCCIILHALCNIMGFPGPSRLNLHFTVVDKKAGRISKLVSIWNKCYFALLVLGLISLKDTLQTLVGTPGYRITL

[3] = molecular target: T3, High affinity choline transporter 1 (Homo sapiens, UniProt Q9GZV3); test: CHT inhibitors, dose response, cell-based, 5-point CRC, membrane potential dye (AID 504840); format: functional
T3 sequence (Q9GZV3 whole entry): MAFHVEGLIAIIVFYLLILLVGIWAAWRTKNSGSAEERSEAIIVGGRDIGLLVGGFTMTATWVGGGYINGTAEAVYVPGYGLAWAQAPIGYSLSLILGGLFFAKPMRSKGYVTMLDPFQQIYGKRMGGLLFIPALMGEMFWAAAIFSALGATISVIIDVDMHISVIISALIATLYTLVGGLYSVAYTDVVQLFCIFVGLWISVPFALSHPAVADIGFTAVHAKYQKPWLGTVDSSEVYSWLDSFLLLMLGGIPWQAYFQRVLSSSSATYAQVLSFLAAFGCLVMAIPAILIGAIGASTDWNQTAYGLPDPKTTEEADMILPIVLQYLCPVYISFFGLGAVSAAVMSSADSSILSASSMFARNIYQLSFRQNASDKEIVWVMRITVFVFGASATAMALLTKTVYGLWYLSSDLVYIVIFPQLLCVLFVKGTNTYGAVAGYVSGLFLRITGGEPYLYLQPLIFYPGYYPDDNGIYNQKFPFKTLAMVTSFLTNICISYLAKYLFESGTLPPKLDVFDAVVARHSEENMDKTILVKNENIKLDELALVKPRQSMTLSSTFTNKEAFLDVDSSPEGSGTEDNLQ

[4] = molecular target: T3, High affinity choline transporter 1; test: CHT inhibitors, dose response, cell-based, 10-point CRC, membrane potential dye (AID 588401); format: functional;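 further: membrane potential dye fluorescence of choline-evoked depolarization via CHT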
Bcl-2-related protein A1 = molecular target: T4, Bcl-2-related protein A1 (Mus musculus, UniProt Q07440); format: functional;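 further: confirmatory dose–response counterscreen on Bfl-1, used to check hits from a UBC13 polyubiquitin inhibitor campaign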
T4 sequence (Q07440 whole entry): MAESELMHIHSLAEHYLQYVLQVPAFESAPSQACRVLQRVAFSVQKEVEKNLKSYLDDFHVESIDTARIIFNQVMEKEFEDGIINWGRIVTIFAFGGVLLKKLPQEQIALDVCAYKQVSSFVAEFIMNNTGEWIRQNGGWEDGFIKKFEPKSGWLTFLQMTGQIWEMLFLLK

CAAX prenyl protease 1 = CAAX prenyl protease 1 (Saccharomyces cerevisiae S288c, UniProt P47154); test: Ste24 protease inhibitors, dose response, biochemical, S. cerevisiae, plate reader, cherry-pick (AID 488815)
[5] = molecular target: T5, Ubiquitin-conjugating enzyme E2 N (Homo sapiens, UniProt P61088); format: functional
T5 sequence (P61088 whole entry): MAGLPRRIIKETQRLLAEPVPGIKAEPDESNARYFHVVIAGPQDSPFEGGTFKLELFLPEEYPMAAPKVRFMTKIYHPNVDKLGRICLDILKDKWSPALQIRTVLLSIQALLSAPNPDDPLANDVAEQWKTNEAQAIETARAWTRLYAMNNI

[6] = molecular target: T5, Ubiquitin-conjugating enzyme E2 N; format: functional; remark: listed apart in the source
[7] = molecular target: T1, Glycogen synthase kinase-3 beta; format: functional
[8] = molecular target: Cyclin-dependent kinase 7 (Homo sapiens, UniProt P50613); format: functional;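 further: value comes from a kinome-wide kinase profiling panel in which CDK7 is one member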
LIM domain kinase 1 = LIM domain kinase 1 (Homo sapiens, UniProt P53667); test: Navigating the Kinome. Panel member name: LIMK1; format: functional
[9] = molecular target: Serine/threonine-protein kinase pim-1 (Homo sapiens, UniProt P11309); format: functional
[10] = molecular target: Dual specificity protein kinase CLK4 (Homo sapiens, UniProt Q9HAZ1); format: functional
[11] = molecular target: Serine/threonine-protein kinase Chk1 (Homo sapiens, UniProt O14757); format: functional;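 further: measured as one member of a kinome-wide kinase profiling panel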
[12] = molecular target: Cyclin-dependent kinase 8 (Homo sapiens, UniProt P49336); test: Navigating the Kinome. Panel member name: CDK8; format: functional
[13] = molecular target: Rho-associated protein kinase 1 (Homo sapiens, UniProt Q13464); format: functional;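 further: measured within a broad kinome-wide panel profiling many kinases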
[14] = molecular target: Cyclin-dependent kinase 9 (Homo sapiens, UniProt P50750); format: functional;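 further: value from the CDK9 entry of a kinome-spanning kinase panel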
[15] = molecular target: Melanin-concentrating hormone receptor 1 (Homo sapiens, UniProt Q99705); test: Late-stage fluorescence-based counterscreen for antagonists of the G-protein coupled receptor 7 (GPR7): cell-based dose response assay to identify antagonists of the melanin-concentrating hormone receptor 1 (MCHR1) Set 5.; format: functional
[16] = molecular target: Neuropeptides B/W receptor type 1 (Homo sapiens, UniProt P48145); test: GPR7 antagonist potency, late-stage follow-up, cell-based, fluorescence, dose response, set 5 (AID 588566); format: functional
[17] = molecular target: T6, Testis-specific serine/threonine-protein kinase 2 (Homo sapiens, UniProt Q96PF2); format: functional;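 further: part of the Navigating the Kinome panel, target entry STK22B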
T6 sequence (Q96PF2 whole entry): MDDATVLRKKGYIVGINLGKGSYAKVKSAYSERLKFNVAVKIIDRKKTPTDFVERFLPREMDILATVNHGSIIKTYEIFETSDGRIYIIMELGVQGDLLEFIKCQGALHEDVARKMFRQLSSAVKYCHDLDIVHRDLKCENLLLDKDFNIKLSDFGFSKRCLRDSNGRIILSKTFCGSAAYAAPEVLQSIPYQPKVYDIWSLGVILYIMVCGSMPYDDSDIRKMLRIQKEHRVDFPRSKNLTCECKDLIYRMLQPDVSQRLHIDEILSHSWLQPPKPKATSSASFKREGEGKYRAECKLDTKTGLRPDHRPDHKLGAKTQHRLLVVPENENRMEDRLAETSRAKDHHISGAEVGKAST

[18] = molecular target: PAS domain-containing serine/threonine-protein kinase (Homo sapiens, UniProt Q96RG2); format: functional
[19] = molecular target: G protein-coupled receptor kinase 5 (Homo sapiens, UniProt P34947); test: Navigating the Kinome. Panel member name: GPRK5; format: functional
[20] = molecular target: T7, Lymphokine-activated killer T-cell-originated protein kinase (Homo sapiens, UniProt Q96KB5); format: functional;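 further: value comes from a kinase panel screen in which TOPK was one of the panel members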
T7 sequence (Q96KB5 whole entry): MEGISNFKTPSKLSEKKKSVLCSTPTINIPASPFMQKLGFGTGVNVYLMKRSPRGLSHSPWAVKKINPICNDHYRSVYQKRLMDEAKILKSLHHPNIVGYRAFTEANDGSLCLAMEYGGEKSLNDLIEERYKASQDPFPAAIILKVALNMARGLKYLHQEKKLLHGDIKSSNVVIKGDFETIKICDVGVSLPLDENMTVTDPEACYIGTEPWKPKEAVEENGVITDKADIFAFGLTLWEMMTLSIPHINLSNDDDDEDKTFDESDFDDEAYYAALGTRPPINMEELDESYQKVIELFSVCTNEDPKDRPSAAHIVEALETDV

[21] = molecular target: Protein kinase C gamma type (Homo sapiens, UniProt P05129); format: functional
[22] = molecular target: Cell division cycle 7-related protein kinase (Homo sapiens, UniProt O00311); format: functional;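 further: value obtained from a kinome-wide kinase panel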
[23] = molecular target: T8, Dual specificity tyrosine-phosphorylation-regulated kinase 3 (Homo sapiens, UniProt O43781); format: functional;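 further: measured as one member of a broad kinase panel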
T8 sequence (O43781 whole entry): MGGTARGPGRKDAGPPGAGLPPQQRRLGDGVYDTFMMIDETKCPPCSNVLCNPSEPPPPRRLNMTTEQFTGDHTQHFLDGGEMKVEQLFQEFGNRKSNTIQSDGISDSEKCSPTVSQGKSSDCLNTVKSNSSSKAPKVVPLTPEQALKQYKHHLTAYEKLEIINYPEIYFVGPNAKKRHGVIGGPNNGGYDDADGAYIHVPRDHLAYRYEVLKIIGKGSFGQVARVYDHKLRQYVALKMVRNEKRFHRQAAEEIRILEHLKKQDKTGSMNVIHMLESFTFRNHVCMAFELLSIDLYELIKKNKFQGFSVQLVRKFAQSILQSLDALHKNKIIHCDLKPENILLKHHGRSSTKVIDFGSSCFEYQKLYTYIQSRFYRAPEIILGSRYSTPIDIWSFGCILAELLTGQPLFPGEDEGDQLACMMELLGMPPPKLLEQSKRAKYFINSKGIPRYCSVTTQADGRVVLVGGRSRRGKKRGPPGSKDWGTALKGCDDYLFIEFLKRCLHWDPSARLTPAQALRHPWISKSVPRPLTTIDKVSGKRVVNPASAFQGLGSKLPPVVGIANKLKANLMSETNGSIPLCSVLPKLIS

[24] = molecular target: MAP kinase-activated protein kinase 3 (Homo sapiens, UniProt Q16644); format: functional;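 further: value comes from a kinome-wide profiling panel in which MAPKAPK3 is one of the panel members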
[25] = molecular target: Cyclin-dependent kinase 1 (Homo sapiens, UniProt P06493); format: functional;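 further: Kinome-wide panel profiling, with the target listed as panel member CDC2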
[26] = molecular target: Eukaryotic elongation factor 2 kinase (Homo sapiens, UniProt O00418); format: functional
[27] = molecular target: T9, Protein kinase C zeta type (Homo sapiens, UniProt Q05513); format: functional;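 further: measured as one member of a broad kinase profiling panel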
T9 sequence (Q05513 whole entry): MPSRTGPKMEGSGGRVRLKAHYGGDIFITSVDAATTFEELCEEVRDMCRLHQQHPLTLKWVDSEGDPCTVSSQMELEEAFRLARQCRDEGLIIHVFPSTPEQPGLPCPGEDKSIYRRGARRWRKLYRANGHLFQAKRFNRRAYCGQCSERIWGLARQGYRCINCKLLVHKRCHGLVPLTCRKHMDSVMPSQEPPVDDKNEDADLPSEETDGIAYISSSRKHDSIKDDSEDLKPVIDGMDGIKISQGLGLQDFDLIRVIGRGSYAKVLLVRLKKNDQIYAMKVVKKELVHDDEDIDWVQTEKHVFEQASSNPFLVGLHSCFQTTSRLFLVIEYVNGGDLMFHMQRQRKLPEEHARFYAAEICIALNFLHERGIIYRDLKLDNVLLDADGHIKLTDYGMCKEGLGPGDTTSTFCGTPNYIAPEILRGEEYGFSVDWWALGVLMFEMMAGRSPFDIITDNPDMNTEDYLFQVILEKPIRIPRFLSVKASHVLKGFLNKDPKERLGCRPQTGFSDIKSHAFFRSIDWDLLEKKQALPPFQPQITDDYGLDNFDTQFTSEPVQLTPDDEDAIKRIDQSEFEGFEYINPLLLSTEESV

T1 sequence (P49841 whole entry): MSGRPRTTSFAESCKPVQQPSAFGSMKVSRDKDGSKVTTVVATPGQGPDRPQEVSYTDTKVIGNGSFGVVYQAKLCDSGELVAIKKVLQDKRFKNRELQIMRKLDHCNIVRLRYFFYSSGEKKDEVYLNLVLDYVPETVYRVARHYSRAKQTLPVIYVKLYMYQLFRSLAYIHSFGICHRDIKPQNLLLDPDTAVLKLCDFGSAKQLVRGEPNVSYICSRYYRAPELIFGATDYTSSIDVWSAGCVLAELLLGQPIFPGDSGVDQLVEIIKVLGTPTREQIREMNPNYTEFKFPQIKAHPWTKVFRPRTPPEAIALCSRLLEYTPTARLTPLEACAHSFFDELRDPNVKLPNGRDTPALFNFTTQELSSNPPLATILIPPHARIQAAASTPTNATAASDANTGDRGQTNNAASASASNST
MAP kinase-activated protein kinase 3, sequence (Q16644 whole entry): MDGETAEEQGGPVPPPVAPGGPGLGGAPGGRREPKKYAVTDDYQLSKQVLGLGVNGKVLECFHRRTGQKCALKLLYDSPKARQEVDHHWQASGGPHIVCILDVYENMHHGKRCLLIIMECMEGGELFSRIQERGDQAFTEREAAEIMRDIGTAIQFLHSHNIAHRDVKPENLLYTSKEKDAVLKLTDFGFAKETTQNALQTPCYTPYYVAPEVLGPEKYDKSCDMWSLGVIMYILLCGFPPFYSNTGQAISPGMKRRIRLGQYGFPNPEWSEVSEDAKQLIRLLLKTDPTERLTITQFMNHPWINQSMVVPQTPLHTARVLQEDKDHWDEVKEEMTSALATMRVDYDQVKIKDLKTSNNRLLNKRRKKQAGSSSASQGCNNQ
Rho-associated protein kinase 1, sequence (Q13464 whole entry): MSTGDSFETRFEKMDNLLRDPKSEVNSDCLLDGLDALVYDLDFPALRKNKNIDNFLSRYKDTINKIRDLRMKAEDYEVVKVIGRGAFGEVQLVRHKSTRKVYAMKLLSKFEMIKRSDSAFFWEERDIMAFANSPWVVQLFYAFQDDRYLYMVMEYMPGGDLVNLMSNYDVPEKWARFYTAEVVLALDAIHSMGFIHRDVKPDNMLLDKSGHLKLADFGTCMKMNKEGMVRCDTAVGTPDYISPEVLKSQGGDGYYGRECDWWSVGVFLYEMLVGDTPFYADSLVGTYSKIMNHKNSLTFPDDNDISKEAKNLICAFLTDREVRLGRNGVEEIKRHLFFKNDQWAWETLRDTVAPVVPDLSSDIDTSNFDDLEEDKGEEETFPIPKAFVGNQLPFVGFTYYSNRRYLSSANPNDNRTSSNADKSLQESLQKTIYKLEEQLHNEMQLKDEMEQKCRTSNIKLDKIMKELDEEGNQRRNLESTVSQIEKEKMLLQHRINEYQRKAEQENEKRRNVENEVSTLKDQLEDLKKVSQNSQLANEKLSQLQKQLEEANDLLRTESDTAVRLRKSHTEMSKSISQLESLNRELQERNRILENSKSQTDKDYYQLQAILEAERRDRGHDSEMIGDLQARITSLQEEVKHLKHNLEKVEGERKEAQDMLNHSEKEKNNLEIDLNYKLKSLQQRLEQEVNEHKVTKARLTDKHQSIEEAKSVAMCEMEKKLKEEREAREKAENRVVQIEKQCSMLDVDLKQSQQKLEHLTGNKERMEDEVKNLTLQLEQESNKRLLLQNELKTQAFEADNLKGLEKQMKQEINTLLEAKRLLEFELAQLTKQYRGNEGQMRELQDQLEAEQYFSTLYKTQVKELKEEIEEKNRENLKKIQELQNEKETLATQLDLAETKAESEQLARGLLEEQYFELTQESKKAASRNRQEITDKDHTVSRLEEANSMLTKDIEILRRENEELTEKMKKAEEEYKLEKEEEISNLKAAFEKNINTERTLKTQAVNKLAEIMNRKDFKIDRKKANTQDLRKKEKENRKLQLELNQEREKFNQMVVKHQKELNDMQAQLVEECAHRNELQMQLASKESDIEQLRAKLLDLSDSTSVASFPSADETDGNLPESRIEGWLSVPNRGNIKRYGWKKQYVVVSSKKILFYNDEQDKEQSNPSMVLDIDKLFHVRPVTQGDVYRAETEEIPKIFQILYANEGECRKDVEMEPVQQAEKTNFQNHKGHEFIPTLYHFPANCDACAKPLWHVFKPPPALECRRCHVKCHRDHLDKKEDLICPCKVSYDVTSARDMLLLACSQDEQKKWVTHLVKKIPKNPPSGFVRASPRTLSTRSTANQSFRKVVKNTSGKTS
Neuropeptides B/W receptor type 1, sequence (P48145 whole entry): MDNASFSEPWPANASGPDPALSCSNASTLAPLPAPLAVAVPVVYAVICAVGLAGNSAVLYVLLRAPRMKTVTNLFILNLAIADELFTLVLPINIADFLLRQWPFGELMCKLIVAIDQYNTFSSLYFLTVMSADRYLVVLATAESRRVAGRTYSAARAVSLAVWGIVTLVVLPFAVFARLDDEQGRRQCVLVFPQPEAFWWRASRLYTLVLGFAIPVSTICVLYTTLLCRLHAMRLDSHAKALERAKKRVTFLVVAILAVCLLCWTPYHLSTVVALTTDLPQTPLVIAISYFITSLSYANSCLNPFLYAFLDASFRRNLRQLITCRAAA
Cell division cycle 7-related protein kinase, sequence (O00311 whole entry): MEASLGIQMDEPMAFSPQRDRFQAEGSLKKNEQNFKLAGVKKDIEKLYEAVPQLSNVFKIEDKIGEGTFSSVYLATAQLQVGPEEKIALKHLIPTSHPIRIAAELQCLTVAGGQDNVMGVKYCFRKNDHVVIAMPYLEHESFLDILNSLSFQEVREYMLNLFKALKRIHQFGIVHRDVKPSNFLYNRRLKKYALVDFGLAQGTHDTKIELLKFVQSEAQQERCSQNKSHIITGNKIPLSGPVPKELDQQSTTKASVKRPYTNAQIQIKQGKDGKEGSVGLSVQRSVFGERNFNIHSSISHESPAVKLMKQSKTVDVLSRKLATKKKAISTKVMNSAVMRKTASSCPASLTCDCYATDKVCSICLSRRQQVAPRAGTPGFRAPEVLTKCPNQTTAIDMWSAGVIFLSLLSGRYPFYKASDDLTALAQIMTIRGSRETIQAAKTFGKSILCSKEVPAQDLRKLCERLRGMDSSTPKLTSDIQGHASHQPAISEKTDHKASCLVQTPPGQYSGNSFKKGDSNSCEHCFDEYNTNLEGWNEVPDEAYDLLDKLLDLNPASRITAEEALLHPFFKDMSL
Cyclin-dependent kinase 8, sequence (P49336 whole entry): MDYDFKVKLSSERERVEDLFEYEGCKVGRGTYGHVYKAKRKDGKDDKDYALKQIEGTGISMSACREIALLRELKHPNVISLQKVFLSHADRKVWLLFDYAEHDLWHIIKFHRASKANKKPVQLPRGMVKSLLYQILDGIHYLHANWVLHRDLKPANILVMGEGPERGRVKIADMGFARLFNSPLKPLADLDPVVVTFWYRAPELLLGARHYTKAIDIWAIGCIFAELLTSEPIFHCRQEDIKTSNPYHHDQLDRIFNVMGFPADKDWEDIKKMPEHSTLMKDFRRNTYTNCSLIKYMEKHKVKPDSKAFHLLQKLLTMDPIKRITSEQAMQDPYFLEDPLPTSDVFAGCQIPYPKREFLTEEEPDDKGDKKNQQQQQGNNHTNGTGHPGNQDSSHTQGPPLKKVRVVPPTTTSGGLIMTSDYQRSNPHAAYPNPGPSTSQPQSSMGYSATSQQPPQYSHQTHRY
Cyclin-dependent kinase 9, sequence (P50750 whole entry): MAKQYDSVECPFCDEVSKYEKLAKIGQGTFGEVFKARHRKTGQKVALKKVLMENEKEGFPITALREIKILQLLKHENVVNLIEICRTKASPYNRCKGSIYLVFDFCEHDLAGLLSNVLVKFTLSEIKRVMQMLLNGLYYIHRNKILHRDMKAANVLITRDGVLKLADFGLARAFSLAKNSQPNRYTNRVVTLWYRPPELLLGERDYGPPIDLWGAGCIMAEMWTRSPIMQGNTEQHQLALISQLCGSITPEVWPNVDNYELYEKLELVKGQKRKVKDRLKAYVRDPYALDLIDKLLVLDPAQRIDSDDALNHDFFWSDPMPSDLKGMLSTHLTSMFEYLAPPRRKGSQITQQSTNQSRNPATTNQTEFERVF
Serine/threonine-protein kinase pim-1, sequence (P11309 whole entry): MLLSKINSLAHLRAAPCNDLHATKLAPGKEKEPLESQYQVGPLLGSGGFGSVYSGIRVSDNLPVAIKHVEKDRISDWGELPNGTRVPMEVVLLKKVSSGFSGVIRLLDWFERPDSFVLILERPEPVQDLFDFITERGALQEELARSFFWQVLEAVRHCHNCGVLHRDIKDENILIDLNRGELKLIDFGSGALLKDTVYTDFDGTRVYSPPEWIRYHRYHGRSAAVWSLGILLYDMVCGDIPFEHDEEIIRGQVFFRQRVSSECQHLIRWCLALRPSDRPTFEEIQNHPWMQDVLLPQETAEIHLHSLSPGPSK

AC50 [1]: 1.56 µM (active)
AC50 [2]: 0.429 µM (active)
Compound: Nc1nc(NCC2CCCO2)nc(Nc2ccc(Cl)cc2)c1[N+](=O)[O-] (stereo unspecified)

AC50 (CAAX prenyl protease 2): 35.5 µM (active)
IC50 [3]: 1.39 µM (active)
IC50 [4]: 1.08 µM (active)
IC50 (Bcl-2-related protein A1): > 20 µM (inactive)
AC50 (CAAX prenyl protease 1): > 100 µM (inactive)
IC50 [5]: 4.28 µM (active)
IC50 [6]: 4.21 µM (active)
Compound: NCCCn1c(C(=O)c2cc(Cl)c(N)c(Cl)c2)c2ccc(C(F)(F)F)cc2[n+]1[O-]

IC50 [15]: 8.86 µM (active)
IC50 [16]: 2.07 µM (active)
Compound: COc1ccc(Oc2c(F)cnn(Cc3cccc4ccccc34)c2=O)cc1

Second part, the molecule before the results:

Compound: O=C(C=Cc1ccc(Br)cc1)Nc1cccc2cnccc12
Ki [7]: 2 µM (active)
Ki [8]: 1.58 µM (active)
Ki (LIM domain kinase 1): 3.16 µM (active)
Ki [9]: 2.51 µM (active)
Ki [10]: 1.58 µM (active)
Ki [11]: 2 µM (active)
Ki [12]: 2 µM (active)
Ki [13]: 3.16 µM (active)
Ki [14]: 1.58 µM (active)

Compound: CNC(=O)c1ccccc1Sc1ccc2c(C=Cc3ccccn3)n[nH]c2c1
Ki [17]: > 1.58 µM (inactive)
Ki [18]: > 1.58 µM (inactive)
Ki [19]: > 3.98 µM (inactive)
Ki [20]: > 10 µM (inactive)
Ki [21]: > 7.94 µM (inactive)
Ki [22]: > 1.26 µM (inactive)
Ki [23]: > 6.31 µM (inactive)
Ki [24]: > 10 µM (inactive)
Ki [25]: > 7.94 µM (inactive)
Ki [26]: > 3.98 µM (inactive)
Ki [27]: > 7.94 µM (inactive)

— ChEMBL document CHEMBL1201862, “PubChem BioAssay data set” (2004)
